One substance from US20230346969A1, “INTERMEDIATE FOR PREPARING ANTIBODY-DRUG CONJUGATE (ADC), PREPARATION METHOD THEREFOR, AND USE THEREOF” (priority 2020, published 2023) can be followed below.

Test [1] deals with mixture of Trop-2-positive tumor cells BXPC-3 and Trop-2-negative tumor cells NCIH1688. The experiment in a line: Bystander effect: transplanted tumor from mixture of BXPC-3 and NCIH1688 cells. The format is in vivo, BALB/c-nu/nu mice. Conditions: 10 mg/kg, transplanted tumors heterogeneously expressing Trop-2. An excerpt:
Five-week-old female athymic BALB/c nu/nu mice were purchased from Charles River Company (Shanghai, China), and mice were randomly divided into 5-6 mice/group. Animal handling and procedures were approved and performed in accordance with the requirements of the Institutional Animal Care and Use Committee (IACUC) of Shanghai Institute of Materia Medica, Chinese Academy of Sciences. All models were inoculated subcutaneously on the side of mice. BXPC-3, HCC1806 and NCIH1688 cells were established by injecting and homogenizing 5 × 10^6 cells in Matrigel matrix. COLO205 cells were established by injecting and suspending 1 × 10^7 cells in Matrigel matrix. After the tumor volume reached about 200 mm^3, the tumor-bearing mice were randomly divided into treatment groups and a control group according to the tumor volume. Each drug was administered intraperitoneally. […] The percentage of inhibition was calculated by the following formula: (1-average tumor volume of the treatment group/average tumor volume of the control group)×100%. Toxicity of the different treatment groups was assessed by monitoring weight loss.
A mixture of Trop-2-positive tumor cells BXPC-3 and Trop-2-negative tumor cells NCIH1688 or NCIH1688 cells alone were inoculated into BALB/c-nu/nu mice (FIG. 1e, right panel), and the “bystander effect” of hRS7-VK-PTX was detected in a mouse transplanted tumor model.

The subject of test [2] is MDA-MB-231 or CFPAC-1 cells. The test can be described thus: Detection of ADC endocytosis rate by flow cytometry. The format is cell-based. Conditions: Trop-2 expressing cells, 5 µg/mL ADC, 37° C. The protocol:
To assess the endocytosis rate of ADC, MDA-MB-231 or CFPAC-1 cells (1 × 10^6) were incubated with 5 µg/mL of ADC samples in a staining medium for 30 min on ice, and washed twice, and then it was placed in a fresh complete medium. Internalization was initiated in a humidified chamber at 37° C. After the incubation, cells were washed twice with an ice-cold staining medium and then stained with goat anti-human IgG-PE. Cells were analyzed by flow cytometry to detect the level of ADC remaining on the surface.
The internalization rate of ADC may affect its inhibitory efficiency against tumor cells.
(In general: A flow cytometer gives signals particle by particle.)

The subject of a further test is SKBR3. The test can be described thus: Cell viability assay (CCK-8). It counts as cell-based. Conditions: ADCs; CCK-8, 96 hours; 'SKERS' [sic], Mammary; read-out: IC50 (95% Cl). Put shortly: (§1)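 CCK-8, A450 read once untreated controls exceeded 1.0. 3000-10000 cells/well, overnight attachment, then drug titration; 96 h, 37° C, 5% CO2. Percent growth vs untreated; IC50 fitted from mean of 2-3 runs.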

Another test deals with CFPAC-1. The test can be described thus: Cell viability assay (CCK-8). The format is cell-based. Conditions: ADCs; CCK-8, 96 hours; cell CPAC-1 [sic], Pancreas; read-out: IC50 (95% Cl). The procedure, abridged: as §1
The next test concerns COLO205. The experiment in a line: Cell viability assay (CCK-8). The format is cell-based. Conditions: ADCs; CCK-8, 96 hours; cell printed 'COXC28', Colon; read-out: IC50 (95% Cl). The procedure, abridged: as §1
The test system of a further test is HCC1806. The experiment in a line: Cell viability assay (CCK-8). It counts as cell-based. Conditions: ADCs; CCK-8, 96 hours; 'HOC1906' [sic], Mamary; read-out: IC50 (95% Cl). Put shortly: as §1
The test system of another test is BXPC-3. The test can be described thus: Cell viability assay (CCK-8). It counts as cell-based. Conditions: ADCs; CCK-8, 96 hours; cell RMCA [sic], Pancreas; read-out: IC50 (95% Cl). Put shortly: as §1
The next test concerns SCLC-21H. The experiment in a line: Cell viability assay (CCK-8). Conditions: ADCs; CCK-8, 96 hours; SRM-C-21H; read-out: IC50 (95% Cl). The format is cell-based. The procedure, abridged:
as §1

In the next test the test system is Capan-1. The test can be described thus: Cell viability assay (CCK-8). The format is cell-based. Conditions: ADCs; CCK-8, 96 hours; Cxoo-1 [sic], Pancreas; read-out: IC50 (95% Cl). Put shortly:
as §1

The next test relates to SK-MES-1. The experiment in a line: Cell viability assay (CCK-8). It counts as cell-based. Conditions: ADCs; CCK-8, 96 hours; cell 'SK-WSS-7' [sic], Lung; read-out: IC50 (95% Cl). The procedure, abridged: as §1
Another test relates to MDA-MB-468. The test can be described thus: Cell viability assay (CCK-8). It counts as cell-based. Conditions: ADCs; CCK-8, 96 hours; SRM-M9-409, Mammary; read-out: IC50 (95% Cl). Put shortly: as §1
The subject of another test is NCI-H1688. The test can be described thus: Cell viability assay (CCK-8). It counts as cell-based. Conditions: ADCs; CCK-8, 96 hours; cell 'HCl-11685' [sic], Lung; read-out: IC50 (95% Cl). The procedure, abridged:
as §1

A further test deals with NCIH2452. The experiment in a line: Cell viability assay (CCK-8). It counts as cell-based. Conditions: ADCs; CCK-8, 96 hours; cell 'HOC2401' [sic], Lung; read-out: IC50 (95% Cl). Put shortly: as §1
For a further test, the system named is MDA-MB-231. The experiment in a line: Cell viability assay (CCK-8). It counts as cell-based. Conditions: ADCs; CCK-8, 96 hours; cell 'SRM-K9-231' [sic], Mamary; read-out: IC50 (95% Cl). The procedure, abridged: as §1

The IC50 is the concentration needed to halve the response being measured.

On to hRS7-VK-PTX, for which the “tumor growth inhibition index (TGI)” value in test [1] came out at 99.5%. Also, in [2], the internalization rate entry is “faster than hRS7-VK-MMAE and hRS7-VK-SN38”. Also, the IC50 in the test with SKBR3 came to 1.74 nM; in the test on CFPAC-1, 16.8 nM; with COLO205, 4.52 nM; in the test with HCC1806, 0.266 nM; in the test on BXPC-3 it was 0.633 nM; in the test on SCLC-21H it was 2.96 nM. The IC50 stood at 2.98 nM in the test with Capan-1; 10.1 nM in the test on SK-MES-1; 2.68 nM in the test with MDA-MB-468; 32.4 nM in the test with NCI-H1688; 1.4 nM in the test with NCIH2452; 1.59 nM in the test on MDA-MB-231.
